Laboratory results: patent publication US20040019066A1, “Methionine salvage pathway in bacillus” (priority 2002, published 2004)

How the values were obtained:
[1] = test system: Strain BSHP7014 (mtnW:lacZ amyE::pxyl mtnXYZ); assay: Toxicity of MTR for BSHP7014 strain (paper disc on ED1 minimal medium plates); assay type: cell-based, Bacillus subtilis
Procedure: Toxicity of MTR for BSHP7014 strain. Strain BSHP7014 (mtnW:lacZ amyE::pxyl mtnXYZ) was grown on ED1 minimal medium plates in the presence of sulfate as sulfur source (panel A) or in the absence of any added sulfur source (agar as sole sulfur source, panel B). Xylose was added to the medium in order to trigger the expression of mtnXYZ from the pxyl promoter, 10 μl of methionine (met) or MTR was adsorbed on paper discs and plates were incubated over-night at 37° C. Methionine was used as a control for growth and/or toxicity of the sulfur source.
Two genes in the pathway are dispensable, mtnV and mtnX. The first one encodes a transaminase of which there are nine putative paralogs in the genome of B. subtilis (YwfG, AlaT, AspB, PatA, YhdR, YdfD, PatB, YisV, and HisC). In the same way, MtnX (YkrX) is a member of the phosphatase family pfam00702 ([12], FIG. 6), and therefore of a ubiquitous class of hydrolases (several phosphatase genes, in particular are present in the genome of B. subtilis). This is likely to account for the lack of phenotype under our growth conditions. […] In contrast, we discovered that MTR is toxic when the distal genes are present (when used as sole sulfur source or in the presence of sulfate, see FIG. 7). Because of the weak phenotype of a mtnZ mutant and the absence of phenotype of a mtnX mutant, we can be confident that MtnY acts before MtnW (this is a common feature in operons, where it is generally observed that the more distal genes code for proteins acting in the more proximate steps of the pathway).
Bacterial strains and plasmids, and growth media: E. coli and B. subtilis strains as well as plasmids used in this work are listed in Table 3. E. coli TG1 and XL1-Blue were used for cloning experiments (TG1 for single cross-over recombination and XL1-Blue for double cross-over recombination). Despite the fact that there are no public regulations yet in this domain in China, all experiments were performed in accordance with the European regulation requirements concerning the contained use of Genetically Modified Organisms of Group-I (French agreement N^o 2735). […] In the latter case, 10 [μl of the sulfur source under investigation was applicated onto paper discs (MTR, 200 mM stock solution and methionine, 100 mM stock solution) deposited at the center of the plate, after bacteria had been uniformly spread at the surface of the plate, and growth was measured around the disK. […] The optical density (OD) of bacterial cultures was measured at 600 nm. […]

[2] = test system: B. subtilis 168 and mtn region mutants; assay: Growth on MTR as sole sulfur source (ED1 minimal medium plates); assay type: cell-based, Bacillus subtilis; settings: mtnX mutant, strain BFS1852, in the absence of IPTG

In the case of `CSC[C@@H](O)[C@@H](O)[C@@H](O)C=O` [MTR, methylthioribose], the “Toxicity of MTR to the cell” value ([1]; mtnU mutant, mtnY functional) was “toxic”, the “Influence of MTR on sulfate supplemented plates” value ([1]; mtnW inactivated with a polar effect on the distal genes) was “lack of influence” and the “Toxicity of MTR to the cell” value ([1]; mtnW mutant with distal genes mtnXYZ present, MTR as sole sulfur source or in the presence of sulfate) was “extremely toxic”. For the same compound, the “Growth on MTR as sole sulfur source” value [2] was “failed to grow”.
